Test results from patent US9926271B2, “Octahydrocyclopentapyrroles, their preparation and use” (The Trustees of Columbia University in the City of New York, priority 2013, dated 2018).

What was measured:
RBP4-TTR interaction [1] = molecular target: T1, RBP4-TTR interaction (Homo sapiens, UniProt P02753); test: TR-FRET (HTRF) assay for retinol-induced RBP4-TTR interaction; format: biochemical; set-up: human RBP4 fragment (amino acids 19-201); host or cells: Gold(DE3)pLysS E. coli strain (Stratagene), pMAL-c4x vector; conditions: in the presence of 1 μM retinol; read-out: HTRF assay for antagonists of RBP4-TTR interaction: IC50
From the text: TR-FRET Assay for Retinol-Induced RBP4-TTR Interaction
Binding of a desired RBP4 antagonist displaces retinol and induces hindrance for RBP4-TTR interaction resulting in the decreased FRET signal (FIG. 7). Bacterially expressed MBP-RBP4 and untagged TTR were used in this assay. […] Following cell lysis, recombinant RBP4 was purified from the soluble fraction using the ACTA FPLC system (GE Healthcare) equipped with the 5-ml the MBP Trap HP column. Human untagged TTR was purchased from Calbiochem. Untagged TTR was labeled directly with Eu^3+ Cryptate-NHS using the HTRF Cryptate Labeling kit from CisBio following the manufacturer's recommendations. HTRF assay was performed in white low volume 384 well plates (Greiner-Bio) in a final assay volume of 16 μl per well. The reaction buffer contained 10 mM Tris-HCl pH 7.5, 1 mM DTT, 0.05% NP-40, 0.05% Prionex, 6% glycerol, and 400 mM RE. […] Titration of test compounds in this assay was conducted in the presence of 1 μM retinol. All reactions were assembled in the dark under dim red light and incubated overnight at +4° C. wrapped in aluminum foil. TR-FRET signal was measured in the SpectraMax M5e Multimode Plate Reader (Molecular Device). Fluorescence was excited at 337 nm and two readings per well were taken: Reading 1 for time-gated energy transfer from Eu(K) to d2 (337 nm excitation, 668 nm emission, counting delay 75 microseconds, counting window 100 microseconds) and Reading 2 for Eu(K) time-gated fluorescence (337 nm excitation, 620 nm emission, counting delay 400 microseconds, counting window 400 microseconds). The TR-FRET signal was expressed as the ratio of fluorescence intensity: Flu665/Flu620×10,000.

RBP4 [2] = molecular target: T2, RBP4 (Homo sapiens, UniProt P02753); test: Scintillation proximity RBP4 binding assay (SPA); set-up: Untagged human RBP4 purified from urine of tubular proteinuria patients; purchased Fitzgerald Industries International; host or cells: urine of tubular proteinuria patients; conditions: 10 nM 3H-Retinol, 50 nM biotinylated RBP4
Protocol: Scintillation Proximity RBP4 Binding Assay
Untagged human RBP4 purified from urine of tubular proteinuria patients was purchased from Fitzgerald Industries International. It was biotinylated using the EZ-Link Sulfo-NHS-LC-Biotinylation kit from Pierce following the manufacturer's recommendations. Binding experiments were performed in 96-well plates (OptiPlate, PerkinElmer) in a final assay volume of 100 μl per well in SPA buffer (1×PBS, pH 7.4, 1 mM EDTA, 0.1% BSA, 0.5% CHAPS). The reaction mix contained 10 nM ^3H-Retinol (48.7 Ci/mmol; PerkinElmer), 0.3 mg/well Streptavidin-PVT beads, 50 nM biotinylated RBP4 and a test compound. Nonspecific binding was determined in the presence of 20 μM of unlabeled retinol. The reaction mix was assembled in the dark under dim red light. The plates were sealed with clear tape (TopSeal-A: 96-well microplate, PerkinElmer), wrapped in the aluminum foil, and allowed to equilibrate 6 hours at room temperature followed by overnight incubation at +4° C. Radiocounts were measured using a TopCount NXT counter (Packard Instrument Company).

serum RBP4 and retinol = conditions: in vivo; cited from earlier work
RBP4-TTR interaction [3] = molecular target: T1, RBP4-TTR interaction; conditions: cited from earlier work
[4] = tested on: retinal pigment epithelium cells; conditions: many cell types, including the retinal pigment epithelium cells; cited from earlier work
mice = conditions: cited from earlier work
RBP4 [5] = molecular target: T2, RBP4; conditions: cited from earlier work
Abca4−/− mice = conditions: animal model of excessive bisretinoid accumulation; cited from earlier work

Structure (SMILES)	IC50 (RBP4-TTR interaction [1])	IC50 (RBP4 [2])	further results
Cc1cnc(N2C[C@H]3C[C@@H](c4ccccc4C(F)(F)F)C[C@H]3C2)nc1C(=O)O [Compound 66]	596 nM	90 nM	
Cc1cc(NC(=O)N2C[C@H]3C[C@@H](c4ccccc4C(F)(F)F)C[C@H]3C2)c(C(=O)O)cn1 [Compound 73, 6-Methyl-4-((3aR,5r,6aS)-5-(2-(trifluoromethyl)phenyl)octahydrocyclopenta[c]pyrrole-2-carboxamido)nicotinic Acid]		23.9 nM	
CC1=C(/C=C/C(C)=C/C=C/C(C)=C/C(=O)Nc2ccc(O)cc2)C(C)(C)CCC1 [fenretinide, N-(4-hydroxy-phenyl)retinamide]			serum RBP4 and retinol (serum RBP4 and retinol): reduce serum RBP4 and retinol; RBP4-TTR interaction (RBP4-TTR interaction [3]): disrupt the RBP4-TTR interaction; induction of apoptosis [4]: extremely active inducer of apoptosis; formation of hemangiosarcomas (mice): stimulate formation of hemangiosarcomas; binding to RBP4, displacement of all-trans retinol (RBP4 [5]): bind to RBP4; A2E production (Abca4−/− mice): reduced A2E production
O=C(O)c1cc(C(F)(F)F)nc(N2C[C@H]3C[C@@H](c4ccccc4C(F)(F)F)C[C@H]3C2)n1 [Compound 65, 6-(Trifluoromethyl)-2-((3aR,5r,6aS)-5-(2-(trifluoromethyl)phenyl)hexahydrocyclopenta[c]pyrrol-2(1H)-yl)pyrimidine-4-carboxylic Acid]	88 nM	9.5 nM	
O=C(O)c1ccnc(N2C[C@H]3C[C@@H](c4ccccc4C(F)(F)F)C[C@H]3C2)n1 [Compound 64, 2-((3aR,5r,6aS)-5-(2-(Trifluoromethyl)phenyl)hexahydrocyclopenta[c]pyrrol-2(1H)-yl)pyrimidine-4-carboxylic Acid]	79.6 nM	27.2 nM	
COc1cc(C(=O)O)nc(N2C[C@H]3C[C@@H](c4ccccc4C(F)(F)F)C[C@H]3C2)n1 [Compound 62, 6-Methoxy-2-((3aR,5r,6aS)-5-(2-(trifluoromethyl)phenyl)hexahydrocyclopenta[c]pyrrol-2(1H)-yl)pyrimidine-4-carboxylic Acid]	86.7 nM	14.3 nM	
CC(C)c1cc(C(=O)O)nc(N2C[C@H]3C[C@@H](c4ccccc4C(F)(F)F)C[C@H]3C2)n1 [Compound 63, 6-Isopropyl-2-((3aR,5r,6aS)-5-(2-(trifluoromethyl)phenyl)hexahydrocyclopenta[c]pyrrol-2(1H)-yl)pyrimidine-4-carboxylic Acid]	203 nM	158 nM	

More lines, main results first:

IC50 (RBP4-TTR interaction [1])	IC50 (RBP4 [2])	Structure (SMILES)	further results
49.2 nM	54.3 nM	Cc1cc(C(=O)O)nc(N2C[C@H]3C[C@@H](c4cc(F)ccc4C(F)(F)F)C[C@H]3C2)n1 [Compound 72, 2-((3aR,5r,6aS)-5-(5-Fluoro-2-(trifluoromethyl)phenyl)hexahydrocyclopenta[c]pyrrol-2(1H)-yl)-6-methylpyrimidine-4-carboxylic Acid]	
1860 nM	172 nM	O=C(O)c1cnc(N2C[C@H]3C[C@@H](c4ccccc4C(F)(F)F)C[C@H]3C2)nc1 [Compound 68]	
123 nM	48.7 nM	Cc1nc(N2C[C@H]3C[C@@H](c4ccccc4C(F)(F)F)C[C@H]3C2)nc(C(=O)O)c1C [Compound 74, 5,6-Dimethyl-2-((3aR,5r,6aS)-5-(2-(trifluoromethyl)phenyl)hexahydrocyclopenta[c]pyrrol-2(1H)-yl)pyrimidine-4-carboxylic Acid]	
295 nM	14 nM	Cc1cc(C(=O)O)nc(N2C[C@H]3C[C@@H](c4ccccc4C(F)(F)F)C[C@H]3C2)c1 [Compound 69, 4-Methyl-6-((3aR,5r,6aS)-5-(2-(trifluoromethyl)phenyl)hexahydrocyclopenta[c]pyrrol-2(1H)-yl)picolinic Acid]	
276 nM	25.9 nM	O=C(O)c1nc(N2C[C@H]3C[C@@H](c4ccccc4C(F)(F)F)C[C@H]3C2)ncc1F [Compound 67]	
382 nM	43.8 nM	O=C(O)c1cccnc1N1C[C@H]2C[C@@H](c3ccccc3C(F)(F)F)C[C@H]2C1 [Compound 71, 2-((3aR,5r,6aS)-5-(2-(Trifluoromethyl)phenyl)hexahydrocyclopenta[c]pyrrol-2(1H)-yl)nicotinic Acid]	
229 nM	53.2 nM	Cc1cc(C(=O)O)cc(N2C[C@H]3C[C@@H](c4ccccc4C(F)(F)F)C[C@H]3C2)n1 [Compound 70, 2-Methyl-6-((3aR,5r,6aS)-5-(2-(trifluoromethyl)phenyl)hexahydrocyclopenta[c]pyrrol-2(1H)-yl)isonicotinic Acid]	
